ChEMBL document CHEMBL4610123, “Structure-Based Drug Discovery of N-((R)-3-(7-Methyl-1H-indazol-5-yl)-1-oxo-1-(((S)-1-oxo-3-(piperidin-4-yl)-1-(4-(pyridin-4-yl)piperazin-1-yl)propan-2-yl)amino)propan-2-yl)-2'-oxo-1',2'-dihydrospiro[piperidine-4,4'-pyrido[2,3-d][1,3]oxazine]-1-carboxamide (HTL22562): A Calcitonin Gene-Related …” (J Med Chem, 2020)

Columns and labels:
[1] = AUC (infinity) in rat at 1 mg/kg, sc; type: ADME, organism-based; parameters: dose 1 mg/kg, route subcutaneous, time infinity; settings: in vivo
[2] = biological target: Calcitonin-gene-related peptide receptor, CALCRL/RAMP1 (Homo sapiens, UniProt O60894+Q16602); experiment: Displacement of [3H]telcagepant from recombinant human CLR/RAMP1 expressed in Sf21 insect cell membranes measured after 60 mins by microbeta scintillation counting method
[3] = Binding affinity to cynomolgus monkey CGRP receptor; parameters: species or system Macaca fascicularis
[4] = Clearance in cynomolgus monkey at 0.5 mg/kg, iv; type: ADME, organism-based, Macaca fascicularis; settings: in vivo
[5] = AUC (infinity) in cynomolgus monkey at 0.5 mg/kg, sc; type: ADME, organism-based, Macaca fascicularis; parameters: dose 0.5 mg/kg, route subcutaneous, time infinity; settings: in vivo
[6] = biological target: T1, Muscarinic acetylcholine receptor M2 (Homo sapiens) (UniProt P08172); experiment: Antagonist activity at CHRM2 (unknown origin) at 10 uM relative to control
T1 sequence (whole entry): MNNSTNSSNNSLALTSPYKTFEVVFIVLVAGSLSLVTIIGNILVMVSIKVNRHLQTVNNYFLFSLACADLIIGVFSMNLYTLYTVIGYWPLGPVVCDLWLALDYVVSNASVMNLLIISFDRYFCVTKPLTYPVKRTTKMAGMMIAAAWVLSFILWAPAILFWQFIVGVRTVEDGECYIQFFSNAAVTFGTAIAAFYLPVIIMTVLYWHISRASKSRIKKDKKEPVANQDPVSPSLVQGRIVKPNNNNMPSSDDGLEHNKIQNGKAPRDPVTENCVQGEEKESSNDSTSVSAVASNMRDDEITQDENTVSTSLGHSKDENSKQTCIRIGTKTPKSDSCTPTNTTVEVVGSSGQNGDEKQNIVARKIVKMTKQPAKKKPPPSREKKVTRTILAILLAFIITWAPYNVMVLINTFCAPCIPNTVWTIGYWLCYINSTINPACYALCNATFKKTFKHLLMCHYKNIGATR

Sequence of Calcitonin-gene-related peptide receptor, CALCRL/RAMP1 (O60894 whole entry): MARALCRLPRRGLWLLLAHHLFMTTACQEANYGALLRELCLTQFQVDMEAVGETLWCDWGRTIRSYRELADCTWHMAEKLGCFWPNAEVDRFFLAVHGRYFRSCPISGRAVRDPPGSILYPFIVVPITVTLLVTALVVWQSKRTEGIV
Sequence of Calcitonin-gene-related peptide receptor, CALCRL/RAMP1 (Q16602 whole entry): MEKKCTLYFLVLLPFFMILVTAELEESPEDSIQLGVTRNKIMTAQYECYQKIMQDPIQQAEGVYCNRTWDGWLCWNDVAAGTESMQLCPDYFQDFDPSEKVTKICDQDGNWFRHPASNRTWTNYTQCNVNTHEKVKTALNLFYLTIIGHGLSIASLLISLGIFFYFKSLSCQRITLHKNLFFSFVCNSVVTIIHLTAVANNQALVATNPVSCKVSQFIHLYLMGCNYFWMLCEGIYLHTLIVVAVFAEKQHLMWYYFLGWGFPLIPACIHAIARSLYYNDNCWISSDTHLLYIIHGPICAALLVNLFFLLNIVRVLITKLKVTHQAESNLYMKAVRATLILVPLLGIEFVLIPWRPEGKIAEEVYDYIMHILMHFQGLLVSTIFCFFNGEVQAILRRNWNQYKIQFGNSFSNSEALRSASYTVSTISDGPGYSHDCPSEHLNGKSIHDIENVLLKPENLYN

Compound: Cc1cc(C[C@@H](NC(=O)N2CCC3(CC2)OC(=O)Nc2ncccc23)C(=O)N[C@@H](CC2CCNCC2)C(=O)N2CCN(c3ccncc3)CC2)cc2cn[nH]c12 [HTL-0022562]
- AUC(0-inf) [1]: 1280 ng·h/mL
- Ki [2]: 0.0316 nM
- pKi [3]: 11.3
- clearance [4]: 2 mL/min/kg
- AUC(0-inf) [5]: 4210 ng·h/mL
- inhibition [6]: 65%
